Assay [1] deals with PTZ (Pentylenetetrazol) induced clonic seizure. Set-up: species or system Mouse; ICR. The following applies: mouse, in vivo.
Assay [2] has as its system corneally kindled seizures. Put plainly: animal or person. The following applies: Rattus norvegicus, po. Format: in vivo, Sprague-Dawley rats.
Assay [3] deals with PTZ (Pentylenetetrazol) induced clonic seizure. In words: animal or person. Format: in vivo, Rats; SD. The note with it: for PTZ test (ip) Protection % (Rats): rat, in vivo.
Assay [4] deals with hippocampal kindled seizures. Put plainly: animal or person. Format: in vivo, Sprague-Dawley rats. The following applies: Rattus norvegicus, ip, read-out: HK (ip) ED50.
Where [5] appears, read: read-out: CK(po) Protection % (Rats).

The text below walks through data of patent publication US9907776B2 (priority 2013, dated 2018).

With `CCCNC(=O)OC(C)C(O)c1ccccc1Cl` (racemic) [Example 30, 1-(2-chlorophenyl)-1-hydroxypropyl-2-N-propylcarbamate], in assay [1], the “PTZ test (ip) Protection % (Mice)” value is reported as “^a20.4 (33.3%)”.
Turning to `C[C@@H](OC(N)=O)[C@H](O)c1ccccc1Cl` [Example 2, 1-(2-chlorophenyl)-(R)-1-hydroxypropyl-(R)-2-carbamate], in assay [2] (setting [5]), the responders at 20 mg/kg turned out to be 16.7%.
Regarding `C[C@@H](OC(N)=O)[C@H](O)c1ccc(Cl)cc1Cl` [Example 45, 1-(2,4-dichlorophenyl)-(R)-1-hydroxypropyl-(R)-2-carbamate], in assay [1], the “PTZ test (ip) Protection % (Mice)” value is on record as “^a20.4 (16.7%)”. Also, the “PTZ test (ip) Protection % (Rats)” value in assay [3] is “^b50 (16.7%)”.
In the case of `C[C@H](OC(N)=O)[C@@H](O)c1c(Cl)cccc1Cl` [Example 37, 1-(2,6-dichlorophenyl)-(S)-1-hydroxypropyl-(S)-2-carbamate], the “PTZ test (ip) Protection % (Rats)” value in assay [3] is “^b30 (50%)^”. Besides, the responders at 10 mg/kg in assay [2] (setting [5]) is 33.3%.
Turning to `CCCC[C@@H](OC(N)=O)[C@H](O)c1ccccc1Cl` [Example 13, 1-(2-chlorophenyl)-(R)-1-hydroxyhexyl-(R)-2-carbamate], in assay [1], the “PTZ test (ip) Protection % (Mice)” value is “^a20.4 (50%)^”.
For `CCCCC(OC(N)=O)C(O)c1ccccc1Cl` (racemic) [Example 14, 1-(2-chlorophenyl)-1-hydroxyhexyl-2-carbamate], the “PTZ test (ip) Protection % (Mice)” value in assay [1] is reported as “^a20.4 (16.7%)”.
On to `C[C@H](OC(N)=O)[C@@H](O)c1ccccc1Cl` [Example 1, 1-(2-chlorophenyl)-(S)-1-hydroxypropyl-(S)-2-carbamate], for which the ED50 in assay [2] (read-out: CK(po) ED50) is 2.8 mg/kg; in assay [4], 17.6 mg/kg.
Regarding `C[C@H](OC(N)=O)[C@@H](O)c1cccc(Cl)c1Cl` [Example 38, 1-(2,3-dichlorophenyl)-(S)-1-hydroxypropyl-(S)-2-carbamate], the “PTZ test (ip) Protection % (Mice)” value in assay [1] was “^a20.4 (50%)^”. Further, in assay [2] (setting [5]), the responders at 30 mg/kg amounted to 50%.
For the molecule `CCCC[C@H](OC(N)=O)[C@@H](O)c1ccc(Cl)cc1Cl` [Example 43, 1-(2,4-dichlorophenyl)-(S)-1-hydroxyhexyl-(S)-2-carbamate], the “PTZ test (ip) Protection % (Rats)” value in assay [3] is reported as “^b25 (33.3%)”.
Same read-out and setting: the result for `CNC(=O)O[C@@H](C)[C@@H](O)c1ccccc1Cl` [Example 15, 1-(2-chlorophenyl)-(S)-1-hydroxypropyl-(S)-2-N-methylcarbamate] reads “^b25 (33.3%)”.
As for `CNC(=O)OC(C)C(O)c1ccccc1Cl` (racemic) [Example 29, 1-(2-chlorophenyl)-1-hydroxypropyl-2-N-methylcarbamate], in assay [1], the “PTZ test (ip) Protection % (Mice)” value is reported as “^a20.4 (33.3%)”.
`CC(C)[C@H](OC(N)=O)[C@@H](O)c1ccccc1Cl` [Example 9, 1-(2-chlorophenyl)-(S)-1-hydroxy-3-methyl-butyl-(S)-2-carbamate]: the “PTZ test (ip) Protection % (Mice)” value in assay [1] is recorded as “^a20.4 (33.3%)”. Besides, the responders at 30 mg/kg in assay [2] (setting [5]) was determined as 16.7%.
As to `C[C@H](OC(N)=O)[C@@H](O)c1ccccc1F` [Example 63, 1-(2-fluorophenyl)-(S)-1-hydroxypropyl-(S)-2-carbamate], the “PTZ test (ip) Protection % (Mice)” value in assay [1] is “^a20.4 (50%)^”. In assay [2] (setting [5]), the responders at 20 mg/kg is 100%.
Turning to `CC[C@H](OC(N)=O)[C@@H](O)c1ccccc1I` [Example 67, 1-(2-iodophenyl)-(S)-1-hydroxybutyl-(S)-2-carbamate], the “PTZ test (ip) Protection % (Rats)” value in assay [3] was “^b30 (33.3%)”. Besides, the responders at 30 mg/kg in assay [2] (setting [5]) stood at 100%.
Take `C[C@H](OC(=O)NC1CC1)[C@@H](O)c1ccccc1Cl` [Example 18, 1-(2-chlorophenyl)-(S)-1-hydroxypropyl-(R)-2-N-cyclopropylcarbamate]: in assay [3], the “PTZ test (ip) Protection % (Rats)” value was “^b30 (16.7%)”.
For the molecule `CC[C@H](OC(N)=O)[C@@H](O)c1ccc(Cl)cc1Cl` [Example 39, 1-(2,4-dichlorophenyl)-(S)-1-hydroxybutyl-(S)-2-carbamate], the responders at 25 mg/kg in assay [2] (setting [5]) turned out to be 100%.
As for `CC(OC(N)=O)C(O)c1ccccc1Cl` (racemic) [Example 3, 1-(2-chlorophenyl)-1-hydroxypropyl-2-carbamate], the ED50 in assay [3] (Rattus norvegicus, ip, read-out: PTZ test (ip) Rats ED50) was 81.9 mg/kg. Further, in assay [2] (setting [5]), the responders at 10 mg/kg stood at 50%.
`CC(OC(=O)NC1CC1)C(O)c1ccccc1Cl` (racemic) [Example 32, 1-(2-chlorophenyl)-1-hydroxypropyl-2-N-cyclopropylcarbamate]: the “PTZ test (ip) Protection % (Mice)” value in assay [1] is “^a20.4 (16.7%)”.
With `C[C@H](OC(N)=O)[C@H](O)c1ccccc1Cl` [Example 5, 1-(2-chlorophenyl)-(R)-1-hydroxypropyl-(S)-2-carbamate], the responders at 30 mg/kg in assay [2] (setting [5]) was 50%.
`CCCNC(=O)O[C@H](C)[C@H](O)c1ccccc1Cl` [Example 23, 1-(2-chlorophenyl)-(R)-1-hydroxypropyl-(R)-2-N-propylcarbamate]: the “PTZ test (ip) Protection % (Mice)” value in assay [1] is listed as “^a20.4 (50%)^”.
Same read-out and setting: the result for `CCC(OC(N)=O)C(O)c1ccccc1Cl` (racemic) [Example 8, 1-(2-chlorophenyl)-1-hydroxybutyl-2-carbamate] reads “^a20.4 (50%)^”; that for `CC(C)[C@H](OC(N)=O)[C@@H](O)c1c(Cl)cccc1Cl` [Example 42, 1-(2,6-dichlorophenyl)-(S)-1-hydroxy-3-methyl-butyl-(S)-2-carbamate], “^a20.4 (50%)^”.
Take `C[C@@H](OC(=O)NC1CC1)[C@H](O)c1ccccc1Cl` [Example 25, 1-(2-chlorophenyl)-(R)-1-hydroxypropyl-(R)-2-N-cyclopropylcarbamate]: in assay [1], the “PTZ test (ip) Protection % (Mice)” value is recorded as “^a20.4 (66.7%)”.
Regarding `C[C@H](OC(N)=O)[C@@H](O)c1ccc(Cl)cc1Cl` [Example 36, 1-(2,4-dichlorophenyl)-(S)-1-hydroxypropyl-(S)-2-carbamate], the “PTZ test (ip) Protection % (Mice)” value in assay [1] is on record as “^a20.4 (33.3%)”. The responders at 30 mg/kg in assay [2] (setting [5]) came out at 50%.
In the case of `CCCC[C@H](OC(N)=O)[C@@H](O)c1ccccc1Cl` [Example 12, 1-(2-chlorophenyl)-(S)-1-hydroxyhexyl-(S)-2-carbamate], the “PTZ test (ip) Protection % (Mice)” value in assay [1] is “^a20.4 (33.3%)”.
With `C[C@H](OC(N)=O)[C@@H](O)c1ccccc1I` [Example 65, 1-(2-iodophenyl)-(S)-1-hydroxypropyl-(S)-2-carbamate], in assay [1], the “PTZ test (ip) Protection % (Mice)” value was “^a20.4 (100%)”. The responders at 2.8 mg/kg in assay [2] (setting [5]) amounted to 33.3%.
Consider `CC[C@H](OC(N)=O)[C@@H](O)c1c(Cl)cccc1Cl` [Example 40, 1-(2,6-dichlorophenyl)-(S)-1-hydroxybutyl-(S)-2-carbamate], for which, in assay [1], the “PTZ test (ip) Protection % (Mice)” value is reported as “^a20.4 (33.3%)”.
For the molecule `CC(C)NC(=O)OC(C)C(O)c1ccccc1Cl` (racemic) [Example 31, 1-(2-chlorophenyl)-1-hydroxypropyl-2-N-isopropylcarbamate], the “PTZ test (ip) Protection % (Mice)” value in assay [1] is “^a20.4 (83.3%)”.
On the same count and under the same terms, the result for `CCCC[C@H](OC(N)=O)[C@@H](O)c1c(Cl)cccc1Cl` [Example 44, 1-(2,6-dichlorophenyl)-(S)-1-hydroxyhexyl-(S)-2-carbamate] reads “^a20.4 (33.3%)”.
As for `CCCNC(=O)O[C@@H](C)[C@@H](O)c1ccccc1Cl` [Example 16, 1-(2-chlorophenyl)-(S)-1-hydroxypropyl-(S)-2-N-propylcarbamate], the “PTZ test (ip) Protection % (Rats)” value in assay [3] is listed as “^b30 (33.3%)”.
As for `CC[C@H](OC(N)=O)[C@@H](O)c1ccccc1Cl` [Example 6, 1-(2-chlorophenyl)-(S)-1-hydroxybutyl-(S)-2-carbamate], the “PTZ test (ip) Protection % (Rats)” value in assay [3] is reported as “^b30 (50%)^”. Also, in assay [2] (setting [5]), the responders at 10 mg/kg turned out to be 33.3%.
`C[C@@H](OC(N)=O)[C@@H](O)c1ccccc1Cl` [Example 4, 1-(2-chlorophenyl)-(S)-1-hydroxypropyl-(R)-2-carbamate]: the responders at 30 mg/kg in assay [2] (setting [5]) was found to be 100%.
Regarding `C[C@@H](OC(N)=O)[C@H](O)c1c(Cl)cccc1Cl` [Example 46, 1-(2,6-dichlorophenyl)-(R)-1-hydroxypropyl-(R)-2-carbamate], the “PTZ test (ip) Protection % (Mice)” value in assay [1] is “^a20.4 (50%)^”. In addition, the responders at 20 mg/kg in assay [2] (setting [5]) is 50%.
